Reference: ChEMBL document CHEMBL1201862, “PubChem BioAssay data set” (2004)
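How tested: cells in 96-well plates exposed to compound for 48 hours at five concentrations. Abbreviation: GI50, concentration required for 50% inhibition of growth.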 Active and inactive are the calls of the source. Rule as the data show it: active = GI50 up to about 1.1 µM and inactive = higher.

How the values were obtained:
Experiment in all cases: inhibition of tumour cell growth, NCI panel, 48 h
[1] = tested on: TK-10
[2] = tested on: UACC-62
[3] = tested on: MCF7
[4] = tested on: A549
[5] = tested on: OVCAR-5
[6] = tested on: HCT-15
[7] = tested on: NCI-H460
[8] = tested on: MDA-MB-435
[9] = tested on: K562
[10] = tested on: CCRF-CEM
[11] = tested on: RPMI-8226
[12] = tested on: MDA-MB-231
[13] = tested on: LOX IMVI
[14] = tested on: SR
[15] = tested on: SW-620
[16] = tested on: OVCAR-4
[17] = tested on: NCI-H23
[18] = tested on: BT-549
[19] = tested on: COLO 205
[20] = tested on: MOLT-4
[21] = tested on: A498
[22] = tested on: SK-MEL-2
[23] = tested on: U-251
[24] = tested on: SK-MEL-5
[25] = tested on: SNB-19
[26] = tested on: SNB-75
[27] = tested on: NCI/ADR-RES
[28] = tested on: SK-OV-3
[29] = tested on: DU-145
[30] = tested on: PC-3
[31] = tested on: HCT-116
[32] = tested on: HT-29
[33] = tested on: EKVX
[34] = tested on: IGROV-1
[35] = tested on: HOP-92
[36] = tested on: M14
[37] = tested on: KM12
[38] = tested on: T47D
[39] = tested on: UO-31
[40] = tested on: HCC 2998
[41] = tested on: CAKI-1
[42] = tested on: SK-MEL-28
[43] = tested on: NCI-H522
[44] = tested on: Hs-578T
[45] = tested on: OVCAR-8
[46] = tested on: Malme-3M
[47] = tested on: UACC-257
[48] = tested on: SF-539
[49] = tested on: MDA-N
[50] = tested on: SF-295
[51] = tested on: HL-60
[52] = tested on: 786-0
[53] = tested on: RXF 393
[54] = tested on: OVCAR-3
[55] = tested on: ACHN
[56] = tested on: NCI-H226
[57] = tested on: HOP-62
[58] = tested on: SF-268
[59] = tested on: SN12C

COc1ccc(NC2=NCCO2)c2c1CCCC2
GI50 [1]: 51.3 µM (inactive)
GI50 [2]: 24.4 µM (inactive)
GI50 [3]: 27.4 µM (inactive)
GI50 [4]: 40.7 µM (inactive)
GI50 [5]: 64.9 µM (inactive)
GI50 [6]: 31.6 µM
GI50 [7]: 34.5 µM (inactive)
GI50 [8]: 29.6 µM (inactive)
GI50 [9]: 28.3 µM (inactive)
GI50 [10]: 25.5 µM (inactive)
GI50 [11]: 24.6 µM (inactive)
GI50 [12]: 43.8 µM (inactive)
GI50 [13]: 29.1 µM (inactive)
GI50 [14]: 29.2 µM (inactive)
GI50 [15]: 47.4 µM (inactive)
GI50 [16]: 58.7 µM (inactive)
GI50 [17]: 25.5 µM (inactive)
GI50 [18]: 30.2 µM (inactive)
GI50 [19]: 28.2 µM (inactive)
GI50 [20]: 10.5 µM (inactive)
GI50 [21]: 61.1 µM (inactive)
GI50 [22]: 18.8 µM (inactive)
GI50 [23]: 25.8 µM (inactive)
GI50 [24]: 17.5 µM (inactive)
GI50 [25]: 39.4 µM (inactive)
GI50 [26]: 27.3 µM (inactive)
GI50 [27]: 27.6 µM (inactive)
GI50 [28]: 18.4 µM (inactive)
GI50 [29]: 51.2 µM (inactive)
GI50 [30]: 26.7 µM (inactive)
GI50 [31]: 28.8 µM (inactive)
GI50 [32]: 46.8 µM (inactive)
GI50 [33]: 47.8 µM (inactive)
GI50 [34]: 22.8 µM (inactive)
GI50 [35]: 19.8 µM (inactive)
GI50 [36]: 29.2 µM (inactive)
GI50 [37]: 42.6 µM (inactive)
GI50 [38]: 35.2 µM (inactive)
GI50 [39]: 53.5 µM (inactive)
GI50 [40]: 31.9 µM (inactive)
GI50 [41]: 54.1 µM (inactive)
GI50 [42]: 30.9 µM (inactive)
GI50 [43]: 31.8 µM (inactive)
GI50 [44]: 25.9 µM (inactive)
GI50 [45]: 36.7 µM (inactive)
GI50 [46]: 34.1 µM (inactive)
GI50 [47]: 26.3 µM (inactive)
GI50 [48]: 33.2 µM (inactive)
GI50 [49]: 35.6 µM (inactive)
GI50 [50]: 27.3 µM (inactive)
GI50 [51]: 15.5 µM (inactive)
GI50 [52]: 93.5 µM (inactive)
GI50 [53]: 21.4 µM (inactive)
GI50 [54]: 29.1 µM (inactive)
GI50 [55]: 29.6 µM (inactive)
GI50 [56]: 21.9 µM (inactive)

CC1(C)CC[C@]2(C(=O)O)CC[C@]3(C)C(=CC[C@@H]4[C@@]5(C)CC[C@H](OC6OC(CO)C(O)C(O)C6O)C(C)(C)[C@@H]5CC[C@]43C)[C@@H]2C1 (stereo partly drawn)
GI50 [2]: 1.82 µM (inactive)
GI50 [3]: 2.37 µM (inactive)
GI50 [4]: 1.68 µM (inactive)
GI50 [5]: 1.9 µM (inactive)
GI50 [6]: 2.75 µM
GI50 [7]: 3.61 µM (inactive)
GI50 [8]: 1.87 µM (inactive)
GI50 [9]: 1.42 µM (inactive)
GI50 [10]: 2.22 µM (inactive)
GI50 [11]: 2.61 µM (inactive)
GI50 [12]: 1.66 µM (inactive)
GI50 [13]: 1.66 µM (inactive)
GI50 [14]: 2.34 µM (inactive)
GI50 [15]: 1.82 µM (inactive)
GI50 [16]: 1.61 µM (inactive)
GI50 [17]: 1.99 µM (inactive)
GI50 [18]: 1.31 µM (inactive)
GI50 [19]: 1.8 µM (inactive)
GI50 [20]: 1.85 µM (inactive)
GI50 [57]: 1.72 µM (inactive)
GI50 [21]: 2.1 µM (inactive)
GI50 [22]: 1.71 µM (inactive)
GI50 [23]: 1.68 µM (inactive)
GI50 [24]: 1.93 µM (inactive)
GI50 [25]: 1.52 µM (inactive)
GI50 [26]: 2.12 µM (inactive)
GI50 [27]: 7.89 µM (inactive)
GI50 [28]: 1.75 µM (inactive)
GI50 [29]: 1.98 µM (inactive)
GI50 [30]: 1.6 µM (inactive)
GI50 [31]: 1.69 µM (inactive)
GI50 [32]: 1.62 µM (inactive)
GI50 [33]: 1.93 µM (inactive)
GI50 [34]: 1.58 µM (inactive)
GI50 [35]: 1.68 µM (inactive)
GI50 [36]: 1.75 µM (inactive)
GI50 [37]: 1.52 µM (inactive)
GI50 [38]: 1.82 µM (inactive)
GI50 [39]: 1.71 µM (inactive)
GI50 [40]: 1.59 µM (inactive)
GI50 [41]: 2.3 µM (inactive)
GI50 [42]: 1.99 µM (inactive)
GI50 [43]: 1.45 µM (inactive)
GI50 [44]: 2.26 µM (inactive)
GI50 [45]: 1.75 µM (inactive)
GI50 [46]: 1.67 µM (inactive)
GI50 [58]: 1.83 µM (inactive)
GI50 [47]: 1.69 µM (inactive)
GI50 [49]: 1.86 µM (inactive)
GI50 [50]: 1.78 µM (inactive)
GI50 [51]: 2 µM (inactive)
GI50 [59]: 1.7 µM (inactive)
GI50 [52]: 1.77 µM (inactive)
GI50 [53]: 1.98 µM (inactive)
GI50 [54]: 1.61 µM (inactive)
GI50 [55]: 1.66 µM (inactive)
GI50 [56]: 1.77 µM (inactive)

S=C(S)N1CCN(c2cccc(Cl)c2)CC1
GI50 [1]: > 100 µM (inactive)
GI50 [2]: > 100 µM (inactive)
GI50 [3]: > 100 µM (inactive)
GI50 [4]: > 100 µM (inactive)
GI50 [5]: > 100 µM (inactive)
GI50 [6]: > 100 µM
GI50 [8]: > 100 µM (inactive)
GI50 [9]: 48.9 µM (inactive)
GI50 [10]: 34.9 µM (inactive)
GI50 [11]: 47.4 µM (inactive)
GI50 [12]: 68.9 µM (inactive)
GI50 [13]: 36.7 µM (inactive)
GI50 [14]: 39.4 µM (inactive)
GI50 [15]: 65.3 µM (inactive)
GI50 [17]: > 100 µM (inactive)
GI50 [18]: 86.5 µM (inactive)
GI50 [19]: 76.4 µM (inactive)
GI50 [20]: 78.3 µM (inactive)
GI50 [57]: 82.8 µM (inactive)
GI50 [21]: > 100 µM (inactive)
GI50 [22]: 85.5 µM (inactive)
GI50 [23]: 44.3 µM (inactive)
GI50 [24]: 27.9 µM (inactive)
GI50 [25]: > 100 µM (inactive)
GI50 [26]: 69.3 µM (inactive)
GI50 [27]: > 100 µM (inactive)
GI50 [29]: > 100 µM (inactive)
GI50 [30]: 66.8 µM (inactive)
GI50 [31]: 41.4 µM (inactive)
GI50 [32]: > 100 µM (inactive)
GI50 [33]: > 100 µM (inactive)
GI50 [34]: > 100 µM (inactive)
GI50 [35]: 80.7 µM (inactive)
GI50 [36]: > 100 µM (inactive)
GI50 [37]: 75.3 µM (inactive)
GI50 [38]: 34.6 µM (inactive)
GI50 [39]: 30.8 µM (inactive)
GI50 [40]: 52.6 µM (inactive)
GI50 [41]: 42.1 µM (inactive)
GI50 [42]: 39.8 µM (inactive)
GI50 [43]: > 100 µM (inactive)
GI50 [44]: > 100 µM (inactive)
GI50 [45]: > 100 µM (inactive)
GI50 [46]: > 100 µM (inactive)
GI50 [58]: 76.4 µM (inactive)
GI50 [47]: 85.1 µM (inactive)
GI50 [48]: > 100 µM (inactive)
GI50 [49]: > 100 µM (inactive)
GI50 [50]: > 100 µM (inactive)
GI50 [51]: 34.9 µM (inactive)
GI50 [59]: > 100 µM (inactive)
GI50 [52]: 73.1 µM (inactive)
GI50 [53]: > 100 µM (inactive)
GI50 [54]: > 100 µM (inactive)
GI50 [55]: > 100 µM (inactive)
